Assay results from patent US10058587B2, “Peptide composition for cancer treatment by inhibiting TRPV6 calcium channel activity” (priority 2008, dated 2018).
Where no end group is shown, it is not given here.

Assays:
[1] = system: HEY C2 ovarian cancer cell line; assay: Induction of apoptosis (APO-ONE caspase 3/7) and cell viability (CellTiter Blue); assay type: cell-based, human; parameters: key to Decline in cell viability: decreased (+); or not (−)
Description: HeyC2 was cultured in RPMI 1640 medium supplemented with 1.0 mM sodium pyruvate, 0.01 mg/mL insulin and 10% (v/v) fetal bovine serum.
The levels of apoptotic induction and cell viability were determined by multiplexing the measurements for single samples. CellTiter Blue and APO-ONE assay systems from Promega allows the determination of cell viability correlated to cell number, and induction of apoptosis. This protocol uses a fluorgenic peptide that contains a peptide recognition-sequence for caspase 3 and caspase 7, […] proteolytic enzymes of the apoptosis cascade. The CellTiter Blue reagent was added to wells in a 96-well plate containing cells under test, immediately after addition of peptide solution or vehicle. About 5000 cells were plated into the wells the day before. At the chosen time (Day 1, Day 2 etc.) the fluorescence was measured at 590 nm (emission) after excitation at 560 nm. The caspase 3/7 activity was measured (485 nm Ex/527 nm Em) in the same wells after adding 120 uL of the Apo-ONE reagent, freeze fracturing at −80° C. for 1 hr, and incubating for 1 hr at room temperature.
For this work, the concentrations of SorC13 and SorC27 used were 0 uM, 1 uM, 10 uM and 100 uM. The experiments extended over a 5 to 7 day period. All measurements were done in quadruplicate with both a blank (no cells) and control (vehicle, no peptide) used to correct the test measurements. The time-response data, and the dose-response data were plotted as means±standard error of the mean. Any statistical comparisons were done with the Student's t-test or by ANOVA analysis over the dose course. The level of statistical significance was considered to be the 95% confidence interval (i.e., p≤0.05).

human TRPV6b = biological target: T1, human TRPV6b (Homo sapiens, UniProt Q9H1D0); assay: Whole-cell patch clamp of calcium store operated current (ISOC) through TRPV6 in transfected LnCaP cells; assay type: cell-based
T1 construct: expressed in transfected cells; host or cells: LnCaP (ATCC CRL-1740), human lymph node prostate cancer cells
T1 sequence (Q9H1D0 41-765 limits assumed): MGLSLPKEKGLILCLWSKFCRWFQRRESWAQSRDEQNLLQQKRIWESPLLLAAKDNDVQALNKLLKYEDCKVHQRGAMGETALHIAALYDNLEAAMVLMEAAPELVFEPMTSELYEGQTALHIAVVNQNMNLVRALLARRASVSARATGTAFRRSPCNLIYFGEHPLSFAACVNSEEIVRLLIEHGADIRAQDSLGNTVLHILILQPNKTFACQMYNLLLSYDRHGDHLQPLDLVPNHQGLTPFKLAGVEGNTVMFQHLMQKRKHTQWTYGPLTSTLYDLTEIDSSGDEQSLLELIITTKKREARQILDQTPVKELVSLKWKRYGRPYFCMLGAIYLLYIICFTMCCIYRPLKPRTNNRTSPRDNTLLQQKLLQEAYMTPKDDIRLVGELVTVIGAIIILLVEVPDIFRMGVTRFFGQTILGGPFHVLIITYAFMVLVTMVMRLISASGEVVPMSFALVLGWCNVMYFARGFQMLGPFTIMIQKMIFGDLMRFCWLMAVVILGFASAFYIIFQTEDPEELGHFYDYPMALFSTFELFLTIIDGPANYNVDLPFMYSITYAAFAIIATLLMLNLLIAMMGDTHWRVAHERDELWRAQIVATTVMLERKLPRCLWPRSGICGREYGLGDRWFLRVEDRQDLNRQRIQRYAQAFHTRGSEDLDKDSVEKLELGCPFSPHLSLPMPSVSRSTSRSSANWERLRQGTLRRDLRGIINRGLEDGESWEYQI
Description: An expression vector (pCAGS-IRES-hTRPV6b) (Bodding et al. 2003) containing the nucleotide code for human TRPV6b was transfected into and expressed by human lymph node prostate cancer (LnCaP, ATCC CRL-1740). Patch clamping with whole-cell current acquisition was used to measure the calcium current through this channel. Cells were treated and calcium store operated current (ISOC) was measured with either SorC13 (n=90) or SorC27 (n=30) in a closed-circuit perfusion for 3 min at each of cumulative concentrations of 0 (baseline), 100 nM, 500 nM 1 uM, 30 uM and 100 uM. Washout perfusion was done at 2 mL/min for 3 min. […] Further, both C-peptides are very strong inhibitors of calcium current through the TRPV6 channel with inhibition constants in the 100 nM range.

[2] = Tissue distribution of Cy5.5-labeled peptides by optical imaging; assay type: in vivo, CD1 mice
Description: SorC13 and SorC27 were labeled with the near-infrared probe, Cy5.5. SorC13 was labeled at lysine-1 and lysine-8 with the infrared fluorescent probe cy5.5 through reaction with Cy5.5 NHS ester-activated process. SorC27 was labeled at the single cysteine thiol with Cy5.5 maleamide-activated reaction. The labeled peptides were purified with a combination of size exclusion chromatography and HPLC. The label, Cy5.5, fluoresces in the infra-red region after excitation with a scanning laser. The low energy laser is able to penetrate the animal to about 1 cm and, thus, by scanning prone and supine positions, the presence of the tagged peptides can be quantified in three dimensions.
Cy5.5-labeled peptides were intravenously injected into CD1 mice (4 for each compound) at 100 ug per animal in 100 uL, and animals were imaged live using an optical imaging system, Optix eXplorer (GE Healthcare Systems) at different time points (30 min, 90 min, 4 h). […] The bio-distribution of the labeled peptides in different organs and tissues were visualized and relatively quantified by optical imaging analysis. This protocol allows for visualization of the location of the labeled peptides and how the location changes over time. […] Nodes that accumulated the labeled peptides are indicated by line 1 (superfacial cervical nodes), line 4 (axillary nodes), line 5 (brachial nodes), line 8 (mesenteric nodes) and line 9 (inguinal nodes). FIGS. 8, 9 and 10 show the amounts of labeled peptides in various organs ex vivo.

EGKLSSNDTEGGLCKEFLHPSKVDLPR [SorC27]
Apoptosis Index (1 = no effect) ([1]; Day 6, SorC27 100 uM): 1.4
Apoptosis Index (1 = no effect) ([1]; Day 7, SorC27 10 uM): 2.2
Apoptosis Index (1 = no effect) ([1]; Day 7, SorC27 100 uM): 2.8
Decline in cell viability ([1]; SorC27): +
IC50 (human TRPV6b): 140 nM
Kd (human TRPV6b): 140 nM
detectable in tissues after perfusion ([2]; Cy5.5-tagged peptide, 24 hours): still detectable
tissue localization ([2]; Cy5.5-tagged peptide, i.v. 100 ug): localize predominantly in lymph nodes, lung, liver and kidney
tissues with highest percent uptake (of total fluorescence) after perfusion ([2]; Cy5.5 labeled, 4 and 24 hours after i.v. injection): liver, lung and kidney
